# Reference: article PMC6364417, “Kinase inhibitor library screening identifies synergistic drug combinations effective in sensitive and resistant melanoma cells” (Journal of Experimental & Clinical Cancer Research : CR, 2019)
# Assays:
# Assay in all cases: Kinase inhibitor library screening, PrestoBlue cell viability, 1 or 10 μM, 72 h
# [1] = system: 501Mel-XP cells (Vemurafenib-resistant)
# [2] = system: A375-GP cells (Dabrafenib-resistant)
# 501Mel cells (parental) = system: 501Mel cells (parental)
# Outline: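 Two concentrations of every kinase inhibitor were tested on each melanoma line and its resistant counterparts, and cell survival was quantified by PrestoBlue against untreated wells.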
# [3] = system: IGR37-GP cells (Dabrafenib-resistant)
# [4] = system: IGR37-XP cells (Vemurafenib-resistant)
# [5] = system: 501Mel-GP cells (Dabrafenib-resistant)
# IGR37 cells (parental) = system: IGR37 cells (parental)
# [6] = system: A375-XP cells (Vemurafenib-resistant)
# A375 cells (parental) = system: A375 cells (parental)
Structure (SMILES),"cell viability (kinase inhibitor library screening) ([1]; 501Mel XP, 1μΜ, in %)","cell viability (kinase inhibitor library screening) ([1]; 501Mel XP, 10μΜ, in %)","cell viability (kinase inhibitor library screening) ([2]; A375 GP, 1μΜ, in %)","cell viability (kinase inhibitor library screening) ([2]; A375 GP, 10μΜ, in %)","cell viability (kinase inhibitor library screening) (501Mel cells (parental); 501Mel Parental, 1μΜ, in %)","cell viability (kinase inhibitor library screening) (501Mel cells (parental); 501Mel Parental, 10μΜ, in %)","cell viability (kinase inhibitor library screening) ([3]; IGR37 GP, 1μΜ, in %)","cell viability (kinase inhibitor library screening) ([3]; IGR37 GP, 10μΜ, in %)","cell viability (kinase inhibitor library screening) ([4]; IGR37 XP, 1μΜ, in %)","cell viability (kinase inhibitor library screening) ([4]; IGR37 XP, 10μΜ, in %)","cell viability (kinase inhibitor library screening) ([5]; 501Mel GP, 1μΜ, in %)","cell viability (kinase inhibitor library screening) ([5]; 501Mel GP, 10μΜ, in %)","cell viability (kinase inhibitor library screening) (IGR37 cells (parental); IGR37 Parental, 1μΜ, in %)","cell viability (kinase inhibitor library screening) (IGR37 cells (parental); IGR37 Parental, 10μΜ, in %)","cell viability (kinase inhibitor library screening) ([6]; A375 XP, 1μΜ, in %)","cell viability (kinase inhibitor library screening) ([6]; A375 XP, 10μΜ, in %)","cell viability (kinase inhibitor library screening) (A375 cells (parental); A375 Parental, 1μΜ, in %)","cell viability (kinase inhibitor library screening) (A375 cells (parental); A375 Parental, 10μΜ, in %)",further results
CCOc1cc2ncc(C#N)c(Nc3ccc(F)c(Cl)c3)c2cc1NC(=O)/C=C/CN(C)C [Pelitinib (EKB-569)],,,,,,,,,,,,,,,,,,,"cell viability, 501Mel XP, 10μΜ ([1]; 501Mel XP, 10μΜ, 72 h, in %): 91.9; cell viability, A375 GP, 1μΜ ([2]; A375 GP, 1μΜ, 72 h, in %): 98.8; cell viability, A375 GP, 10μΜ ([2]; A375 GP, 10μΜ, 72 h, in %): 88.7; cell viability, 501Mel Parental, 1μΜ (501Mel cells (parental); 501Mel Parental, 1μΜ, 72 h, in %): 102.9; cell viability, 501Mel Parental, 10μΜ (501Mel cells (parental); 501Mel Parental, 10μΜ, 72 h, in %): 89.9; cell viability, IGR37 GP, 10μΜ ([3]; IGR37 GP, 10μΜ, 72 h): 92.3%; cell viability, IGR37 GP, 1μΜ ([3]; IGR37 GP, 1μΜ, 72 h, in %): 97.5; cell viability, IGR37 XP, 10μΜ ([4]; IGR37 XP, 10μΜ, 72 h): 77.5%; cell viability, IGR37 XP, 1μΜ ([4]; IGR37 XP, 1μΜ, 72 h, in %): 97.8; cell viability, 501Mel GP, 1μΜ ([5]; 501Mel GP, 1μΜ, 72 h, in %): 102.6; cell viability, 501Mel GP, 10μΜ ([5]; 501Mel GP, 10μΜ, 72 h, in %): 92.4; cell viability, IGR37 Parental, 1μΜ (IGR37 cells (parental); IGR37 Parental, 1μΜ, 72 h, in %): 99.8; cell viability, IGR37 Parental, 10μΜ (IGR37 cells (parental); IGR37 Parental, 10μΜ, 72 h, in %): 97.0; cell viability, A375 XP, 1μΜ ([6]; A375 XP, 1μΜ, 72 h, in %): 104.6; cell viability, A375 XP, 10μΜ ([6]; A375 XP, 10μΜ, 72 h, in %): 96.9; cell viability, A375 Parental, 1μΜ (A375 cells (parental); A375 Parental, 1μΜ, 72 h, in %): 103.3; cell viability, A375 Parental, 10μΜ (A375 cells (parental); A375 Parental, 10μΜ, 72 h, in %): 79.2"
Oc1cc(O)cc(/C=C/c2ccc(O)c(O)c2)c1 [Piceatannol],96.8,81.1,93.0,80.7,98.4,84.8,91.5,85.8,92.0,82.4,95.8,80.4,98.6,86.6,98.5,89.0,98.9,76.1,
CC(C)(C)c1cc(NC(=O)Nc2ccc(-c3cn4c(n3)sc3cc(OCCN5CCOCC5)ccc34)cc2)no1 [Quizartinib (AC220)],,,,,,,,,,,,,,,,,,,"viability at 1 µM ([1]; Homo sapiens, 72 h, read-out: cell viability, 501Mel XP, 1μΜ): 94.6%; viability at 10 µM ([1]; Homo sapiens, 72 h, read-out: cell viability, 501Mel XP, 10μΜ): 80.5%; viability at 1 µM ([2]; Homo sapiens, A-375, 72 h, read-out: cell viability, A375 GP, 1μΜ): 99.4%; viability at 10 µM ([2]; Homo sapiens, A-375, 72 h, read-out: cell viability, A375 GP, 10μΜ): 88.8%; viability at 1 µM (501Mel cells (parental); Homo sapiens, 72 h, read-out: cell viability, 501Mel Parental, 1μΜ): 95.1%; viability at 10 µM (501Mel cells (parental); Homo sapiens, 72 h, read-out: cell viability, 501Mel Parental, 10μΜ): 89.6%; viability at 1 µM ([3]; Homo sapiens, IGR-37, 72 h, read-out: cell viability, IGR37 GP, 1μΜ): 67.8%; viability at 10 µM ([3]; Homo sapiens, IGR-37, 72 h, read-out: cell viability, IGR37 GP, 10μΜ): 28.8%; viability at 1 µM ([4]; Homo sapiens, IGR-37, 72 h, read-out: cell viability, IGR37 XP, 1μΜ): 43.9%; viability at 10 µM ([4]; Homo sapiens, IGR-37, 72 h, read-out: cell viability, IGR37 XP, 10μΜ): 7.2%; viability at 1 µM ([5]; Homo sapiens, 72 h, read-out: cell viability, 501Mel GP, 1μΜ): 109%; viability at 10 µM ([5]; Homo sapiens, 72 h, read-out: cell viability, 501Mel GP, 10μΜ): 93%; viability at 1 µM (IGR37 cells (parental); Homo sapiens, IGR-37, 72 h, read-out: cell viability, IGR37 Parental, 1μΜ): 97.3%; viability at 10 µM (IGR37 cells (parental); Homo sapiens, IGR-37, 72 h, read-out: cell viability, IGR37 Parental, 10μΜ): 102%; viability at 1 µM ([6]; Homo sapiens, A-375, 72 h, read-out: cell viability, A375 XP, 1μΜ): 108%; viability at 10 µM ([6]; Homo sapiens, A-375, 72 h, read-out: cell viability, A375 XP, 10μΜ): 96.3%; viability at 1 µM (A375 cells (parental); Homo sapiens, A-375, 72 h, read-out: cell viability, A375 Parental, 1μΜ): 104%; viability at 10 µM (A375 cells (parental); Homo sapiens, A-375, 72 h, read-out: cell viability, A375 Parental, 10μΜ): 96.3%"
COc1cc(Nc2ncc(F)c(Nc3ccc4c(n3)NC(=O)C(C)(C)O4)n2)cc(OC)c1OC [R406(free base)],77.6,29.6,,44.5,,57.6,84.7,45.4,92.0,20.0,93.8,48.0,97.4,86.8,103.9,63.6,100.1,50.6,
COc1cc(Nc2ncc(F)c(Nc3ccc4c(n3)NC(=O)C(C)(C)O4)n2)cc(OC)c1OC.O=S(=O)(O)c1ccccc1 [R406],102.9,48.7,,54.6,89.8,71.4,90.2,56.0,89.4,27.5,86.1,50.0,103.3,95.3,99.5,69.5,104.7,58.1,
COc1cc(Nc2ncc(F)c(Nc3ccc4c(n3)N(COP(=O)(O)O)C(=O)C(C)(C)O4)n2)cc(OC)c1OC [R788 (Fostamatinib)],82.4,25.1,89.5,49.0,98.5,76.6,87.5,21.3,89.9,12.1,90.2,61.2,99.8,77.8,93.7,63.9,95.5,47.5,
FC(F)(F)c1ccc(Nc2nc3ccc(Oc4ccnc(-c5ncc(C(F)(F)F)[nH]5)c4)cc3[nH]2)cc1 [Raf265 derivative],116.2,77.9,97.7,60.2,,91.6,94.6,87.0,106.8,69.4,,88.7,104.0,102.6,,66.1,104.6,74.8,
